Columns and labels:
Type in all cases: in vivo
[1] = system: redroot pigweed (Amaranthus retroflexus, AMARE); assay: Pre-emerge test, greenhouse herbicide activity screening; conditions: pre-emerge, 14 days after application
Summary of the method: (§1)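 Compounds in acetone were track-sprayed at 15-1000 g ai/ha (187 l/ha) on sandy loam pots: pre-emerge one day after seeding, post-emerge at 2-3 leaf stage with 0.25% v/v non-ionic surfactant. Phytotoxicity was rated 14 days later on a 0 (no damage) to 100 (complete death) scale.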

[2] = system: barnyardgrass (Echinochloa crus-galli, ECHCG); assay: as above; conditions: pre-emerge, 14 days after application
Summary of the method: as §1

[3] = system: green foxtail (Setaria viridis, SETVI); assay: as above; conditions: pre-emerge, 14 days after application
Summary of the method: as §1

[4] = system: ivyleaf morningglory (Ipomoea hederacea, IPOHE); assay: as above; conditions: pre-emerge, 14 days after application
Summary of the method: as §1

[5] = system: johnsongrass (Sorghum halepense, SORHA); assay: as above; conditions: pre-emerge, 14 days after application
Summary of the method: as §1

[6] = system: lambsquarters (Chenopodium album, CHEAL); assay: as above; conditions: pre-emerge, 14 days after application
Summary of the method: as §1

[7] = system: large crabgrass (Digitaria sanguinalis, DIGSA); assay: as above; conditions: pre-emerge, 14 days after application
Summary of the method: as §1

[8] = system: sicklepod (Cassia obtusifolia, CASOB); assay: as above; conditions: pre-emerge, 14 days after application
Summary of the method: as §1

[9] = system: velvetleaf (Abutilon theophrasti, ABUTH); assay: as above; conditions: pre-emerge, 14 days after application
Summary of the method: as §1

[10] = system: field corn (Zea mays L., var. Dekalb 535, CORN); assay: Pre-emerge test, crop safety; conditions: pre-emerge, 14 days after application; for phytotoxicity rating CORN (crop damage): scale 0-100; for phytotoxicity rating CORN: rating scale 0-100
Summary of the method: (§2)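 Visual ratings on a 0-100 scale (0 no damage, 100 all plants dead) were taken at 14 days after treatment. Rates of 15-1000 g ai/ha in acetone, 187 l/ha, were sprayed onto soil one day after planting (pre-emerge) or onto 2-3 leaf plants with 0.25% v/v surfactant (post-emerge).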

[11] = system: upland rice (Oryza sp., var. Tebonnet, RICE); assay: Pre-emerge test, crop safety; conditions: pre-emerge, 14 days after application; for phytotoxicity rating RICE (crop damage): scale 0-100; for phytotoxicity rating RICE: rating scale 0-100
Summary of the method: as §2

[12] = system: barnyardgrass (Echinochloa crus-galli, ECHCG); assay: Post-emerge test, greenhouse herbicide activity screening; conditions: post-emerge, 14 days after application, rating scale 0-100
Summary of the method: (§3)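 Plants grown in 10 cm pots of sandy loam mix received acetone-dissolved compounds through a moving flat-fan nozzle. Doses ranged from 15 to 1000 g ai/ha. Pre-emerge pots were seeded one day earlier, post-emerge pots 8–21 days earlier. Fourteen days on, each pot was graded 0–100 for damage.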

[13] = system: green foxtail (Setaria viridis, SETVI); assay: as above; conditions: post-emerge, 14 days after application, rating scale 0-100
Summary of the method: as §3

[14] = system: ivyleaf morningglory (Ipomoea hederacea, IPOHE); assay: as above; conditions: post-emerge, 14 days after application, rating scale 0-100
Summary of the method: as §3

[15] = system: lambsquarters (Chenopodium album, CHEAL); assay: as above; conditions: post-emerge, 14 days after application, rating scale 0-100
Summary of the method: as §3

[16] = system: large crabgrass (Digitaria sanguinalis, DIGSA); assay: as above; conditions: post-emerge, 14 days after application, rating scale 0-100
Summary of the method: as §3

[17] = system: redroot pigweed (Amaranthus retroflexus, AMARE); assay: as above; conditions: post-emerge, 14 days after application
Summary of the method: as §3

[18] = system: sicklepod (Cassia obtusifolia, CASOB); assay: as above; conditions: post-emerge, 14 days after application, rating scale 0-100
Summary of the method: as §3

[19] = system: velvetleaf (Abutilon theophrasti, ABUTH); assay: as above; conditions: post-emerge, 14 days after application, rating scale 0-100
Summary of the method: as §3

[20] = system: field corn (Zea mays L., var. Dekalb 535, CORN); assay: Post-emerge test, crop safety; conditions: post-emerge, 14 days after application, rating scale 0-100
Summary of the method: as §1

[21] = system: upland rice (Oryza sp., var. Tebonnet, RICE); assay: Post-emerge test, crop safety; conditions: post-emerge, 14 days after application, rating scale 0-100
Summary of the method: as §1

[22] = 250 g ai/ha, rating scale 0-100

Structure (SMILES): Cn1c(C(F)(F)F)cc(=O)n(-c2ccc(Cl)cc2NC(=O)C=Cc2ccccc2)c1=O [2-137]
- phytotoxicity rating AMARE ([1]; 63 g ai/ha, scale 0-100): 100
- phytotoxicity rating AMARE ([1]; 250 g ai/ha, scale 0-100): 100
- phytotoxicity rating ECHCG ([2]; 63 g ai/ha, scale 0-100): 10
- phytotoxicity rating ECHCG ([2]; 250 g ai/ha, scale 0-100): 50
- phytotoxicity rating SETVI ([3]; 63 g ai/ha, scale 0-100): 30
- phytotoxicity rating SETVI ([3]; 250 g ai/ha, scale 0-100): 60
- phytotoxicity rating IPOHE ([4]; 63 g ai/ha, scale 0-100): 30
- phytotoxicity rating IPOHE ([4]; 250 g ai/ha, scale 0-100): 30
- phytotoxicity rating SORHA ([5]; 63 g ai/ha, scale 0-100): 0
- phytotoxicity rating SORHA ([5]; 250 g ai/ha, scale 0-100): 70
- phytotoxicity rating CHEAL ([6]; 63 g ai/ha, scale 0-100): 100
- phytotoxicity rating CHEAL ([6]; 250 g ai/ha, scale 0-100): 100
- phytotoxicity rating DIGSA ([7]; 63 g ai/ha, scale 0-100): 50
- phytotoxicity rating DIGSA ([7]; 250 g ai/ha, scale 0-100): 100
- phytotoxicity rating CASOB ([8]; 63 g ai/ha, scale 0-100): 50
- phytotoxicity rating CASOB ([8]; 250 g ai/ha, scale 0-100): 50
- phytotoxicity rating ABUTH ([9]; 63 g ai/ha, scale 0-100): 80
- phytotoxicity rating ABUTH ([9]; 250 g ai/ha, scale 0-100): 100
- phytotoxicity rating CORN (crop damage) ([10]; 63 g ai/ha): 0
- phytotoxicity rating CORN (crop damage) ([10]; 250 g ai/ha): 10
- phytotoxicity rating RICE (crop damage) ([11]; 63 g ai/ha): 20
- phytotoxicity rating RICE (crop damage) ([11]; 250 g ai/ha): 50
- ECHCG phytotoxicity rating ([12]; 63 g ai/ha): 0
- ECHCG phytotoxicity rating ([12]; 250 g ai/ha): 30
- SETVI phytotoxicity rating ([13]; 63 g ai/ha): 10
- SETVI phytotoxicity rating ([13]; 250 g ai/ha): 30
- IPOHE phytotoxicity rating ([14]; 63 g ai/ha): 100
- IPOHE phytotoxicity rating ([14]; 250 g ai/ha): 90
- CHEAL phytotoxicity rating ([15]; 63 g ai/ha): 100
- CHEAL phytotoxicity rating ([15]; 250 g ai/ha): 100
- DIGSA phytotoxicity rating ([16]; 63 g ai/ha): 0
- DIGSA phytotoxicity rating ([16]; 250 g ai/ha): 10
- AMARE phytotoxicity rating ([17]; 63 g ai/ha, rating scale 0-100): 100
- AMARE phytotoxicity rating [17, 22]: 100
- CASOB phytotoxicity rating ([18]; 63 g ai/ha): 100
- CASOB phytotoxicity rating ([18]; 250 g ai/ha): 90
- ABUTH phytotoxicity rating ([19]; 63 g ai/ha): 100
- ABUTH phytotoxicity rating ([19]; 250 g ai/ha): 100
- CORN phytotoxicity rating (crop damage) ([20]; 63 g ai/ha): 10
- CORN phytotoxicity rating (crop damage) ([20]; 250 g ai/ha): 60
- RICE phytotoxicity rating (crop damage) ([21]; 63 g ai/ha): 10
- RICE phytotoxicity rating (crop damage) ([21]; 250 g ai/ha): 70

Structure (SMILES): CCOC(=O)N(C)C(=O)NNc1c(OC)c(Cl)cc(F)c1-n1c(=O)cc(C(F)(F)F)n(C)c1=O [15-9]
- phytotoxicity rating AMARE ([1]; 63 g ai/ha, rating scale 0-100): 100
- phytotoxicity rating AMARE [1, 22]: 100
- phytotoxicity rating ECHCG ([2]; 63 g ai/ha, rating scale 0-100): 99
- phytotoxicity rating ECHCG [2, 22]: 100
- phytotoxicity rating SETVI ([3]; 63 g ai/ha, rating scale 0-100): 100
- phytotoxicity rating SETVI [3, 22]: 100
- phytotoxicity rating IPOHE ([4]; 63 g ai/ha, rating scale 0-100): 99
- phytotoxicity rating IPOHE [4, 22]: 100
- phytotoxicity rating SORHA ([5]; 63 g ai/ha, rating scale 0-100): 100
- phytotoxicity rating SORHA [5, 22]: 100
- phytotoxicity rating CHEAL ([6]; 63 g ai/ha, rating scale 0-100): 100
- phytotoxicity rating CHEAL [6, 22]: 100
- phytotoxicity rating DIGSA ([7]; 63 g ai/ha, rating scale 0-100): 90
- phytotoxicity rating DIGSA [7, 22]: 100
- phytotoxicity rating CASOB ([8]; 63 g ai/ha, rating scale 0-100): 90
- phytotoxicity rating CASOB [8, 22]: 100
- phytotoxicity rating ABUTH ([9]; 63 g ai/ha, rating scale 0-100): 100
- phytotoxicity rating ABUTH [9, 22]: 100
- phytotoxicity rating CORN ([10]; 63 g ai/ha): 85
- phytotoxicity rating CORN ([10]; 250 g ai/ha): 98
- phytotoxicity rating RICE ([11]; 63 g ai/ha): 95
- phytotoxicity rating RICE ([11]; 250 g ai/ha): 100
- Post-emerge Herbicidal Activity ECHCG (phytotoxicity rating) ([12]; 63 g ai/ha): 0
- Post-emerge Herbicidal Activity ECHCG (phytotoxicity rating) ([12]; 250 g ai/ha): 90
- Post-emerge Herbicidal Activity SETVI (phytotoxicity rating) ([13]; 63 g ai/ha): 0
- Post-emerge Herbicidal Activity SETVI (phytotoxicity rating) ([13]; 250 g ai/ha): 80
- Post-emerge Herbicidal Activity IPOHE (phytotoxicity rating) ([14]; 63 g ai/ha): 100
- Post-emerge Herbicidal Activity IPOHE (phytotoxicity rating) ([14]; 250 g ai/ha): 85
- Post-emerge Herbicidal Activity DIGSA (phytotoxicity rating) ([16]; 63 g ai/ha): 0
- Post-emerge Herbicidal Activity DIGSA (phytotoxicity rating) ([16]; 250 g ai/ha): 80
- Post-emerge Herbicidal Activity AMARE (phytotoxicity rating) ([17]; 63 g ai/ha, rating scale 0-100 (0 no damage, 100 complete death)): 10
- Post-emerge Herbicidal Activity AMARE (phytotoxicity rating) [17, 22]: 95
- Post-emerge Herbicidal Activity CASOB (phytotoxicity rating) ([18]; 63 g ai/ha): 10
- Post-emerge Herbicidal Activity CASOB (phytotoxicity rating) ([18]; 250 g ai/ha): 60
- Post-emerge Herbicidal Activity ABUTH (phytotoxicity rating) ([19]; 63 g ai/ha): 80
- Post-emerge Herbicidal Activity ABUTH (phytotoxicity rating) ([19]; 250 g ai/ha): 100
- Post-emerge Herbicidal Activity CORN (crop damage rating) ([20]; 63 g ai/ha): 30
- Post-emerge Herbicidal Activity CORN (crop damage rating) ([20]; 250 g ai/ha): 70
- Post-emerge Herbicidal Activity RICE (crop damage rating) ([21]; 63 g ai/ha): 50
- Post-emerge Herbicidal Activity RICE (crop damage rating) ([21]; 250 g ai/ha): 90
